Literature values, collected in patent US6811791B2, “Method and concentrated composition for insect and animal control” (priority 2001, dated 2004).

Details: classified by the EPA

CNC(=O)CSP(=S)(OC)OC [Dimethoate, dimethoate]
EPA carcinogen classification: group 3 carcinogen
